# Data from patent US5441941A, “1,2-dihydroellipticines with activity against CNS specific cancer” (The United States of America as represented by the …, priority 1993, dated 1995).
# Experiments:
# XF 498 = assay: NCI in vitro screen, SRB percent growth, CNS Cancer
# M14 = assay: NCI in vitro screen, SRB percent growth, Melanoma
# HCC-2998 = assay: cells; conditions: Homo sapiens
# ACHN = assay: NCI in vitro screen, SRB percent growth, Renal Cancer
# HCT-116 = assay: NCI in vitro screen, SRB percent growth, Colon Cancer
# EKVX = assay: cells; conditions: Homo sapiens
# OVCAR-3 = assay: NCI in vitro screen, SRB percent growth, Ovarian Cancer
# U251 = assay: NCI in vitro screen, SRB percent growth, CNS Cancer
# HL-60 (TB) = assay: NCI in vitro screen, SRB percent growth, Leukemia
# 786-0 = assay: cells; conditions: Homo sapiens
# RXF-631 = assay: NCI in vitro screen, SRB percent growth, Renal Cancer
# CNS cancer cell lines = assay: NCI in vitro screen, overall result on CNS cancer cell lines; conditions: Tables I and II
# IGROV1 = assay: NCI in vitro screen, SRB percent growth, Ovarian Cancer
# K-562 = assay: NCI in vitro screen, SRB percent growth, Leukemia
# UACC-257 = assay: NCI in vitro screen, SRB percent growth, Melanoma
# OVCAR-5 = assay: NCI in vitro screen, SRB percent growth, Ovarian Cancer
# SF-539 = assay: NCI in vitro screen, SRB percent growth, CNS Cancer
# [1] = Log10 Concentration -4.0, 100 µM
# [2] = Log10 Concentration -7.0, 0.1 µM
# [3] = HCC 2998, read-out: Percent Growth
# [4] = 786-0, read-out: Percent Growth
compound,measurement,setting,value
Cc1ccc2[nH]c3c(C)c4c(c(C)c3c2c1)CN(C)C=C4 [Formula XI],Percent Growth,XF 498; [1],-57%
same,Percent Growth,XF 498; Log10 Concentration -5.0,-33%
same,Percent Growth,"XF 498; Log10 Concentration -6.0, 1 µM",46%
same,Percent Growth,XF 498; [2],98%
same,Percent Growth,XF 498; Log10 Concentration -8.0,101%
same,TGI,XF 498; PG=0,3.84 µM
same,GI50,XF 498; PG=+50,0.851 µM
same,CC50,"XF 498; read-out: LC-50, PG=-50",50.4 µM
same,Percent Growth,M14; [1],-93%
same,Percent Growth,M14; Log10 Concentration -5.0,6%
same,Percent Growth,"M14; Log10 Concentration -6.0, 1 µM",103%
same,Percent Growth,M14; [2],94%
same,Percent Growth,M14; Log10 Concentration -8.0,106%
same,TGI,M14; PG=0,11.4 µM
same,GI50,M14; PG=+50,3.52 µM
same,CC50,"M14; read-out: LC-50, PG=-50",36.8 µM
same,GI50,HCC-2998; HCC 2998,1.69 µM
same,CC50,"HCC-2998; HCC 2998, read-out: LC-50",7.89 µM
same,activity at 0.01 µM,HCC-2998; [3],105%
same,activity at 0.1 µM,HCC-2998; [3],108%
same,activity at 1 µM,HCC-2998; [3],84%
same,activity at 10 µM,HCC-2998; [3],-65%
same,activity at 100 µM,HCC-2998; [3],-91%
same,IC (TGI),"HCC-2998; HCC 2998, read-out: TGI",3.65 µM
same,Percent Growth,ACHN; [1],-92%
same,Percent Growth,ACHN; Log10 Concentration -5.0,30%
same,Percent Growth,"ACHN; Log10 Concentration -6.0, 1 µM",81%
same,Percent Growth,ACHN; [2],96%
same,Percent Growth,ACHN; Log10 Concentration -8.0,101%
same,TGI,ACHN; PG=0,17.6 µM
same,GI50,ACHN; PG=+50,4.02 µM
same,CC50,"ACHN; read-out: LC-50, PG=-50",45.1 µM
same,Percent Growth,HCT-116; [1],-81%
same,Percent Growth,HCT-116; Log10 Concentration -5.0,3%
same,Percent Growth,"HCT-116; Log10 Concentration -6.0, 1 µM",83%
same,Percent Growth,HCT-116; [2],103%
same,Percent Growth,HCT-116; Log10 Concentration -8.0,113%
same,TGI,HCT-116; PG=0,10.9 µM
same,GI50,HCT-116; PG=+50,2.58 µM
same,CC50,"HCT-116; read-out: LC-50, PG=-50",42.8 µM
same,GI50,EKVX,3.6 µM
same,activity at 0.01 µM,EKVX; read-out: Percent Growth,109%
same,activity at 0.1 µM,EKVX; read-out: Percent Growth,114%
same,activity at 1 µM,EKVX; read-out: Percent Growth,86%
same,activity at 10 µM,EKVX; read-out: Percent Growth,22%
same,activity at 100 µM,EKVX; read-out: Percent Growth,-22%
same,IC (TGI),EKVX; read-out: TGI,31.2 µM
same,Percent Growth,OVCAR-3; [1],-91%
same,Percent Growth,OVCAR-3; Log10 Concentration -5.0,5%
same,Percent Growth,"OVCAR-3; Log10 Concentration -6.0, 1 µM",76%
same,Percent Growth,OVCAR-3; [2],94%
same,Percent Growth,OVCAR-3; Log10 Concentration -8.0,98%
same,TGI,OVCAR-3; PG=0,11.3 µM
same,GI50,OVCAR-3; PG=+50,2.34 µM
same,CC50,"OVCAR-3; read-out: LC-50, PG=-50",37.6 µM
same,Percent Growth,U251; Log10 Concentration -5.0,-72%
same,Percent Growth,"U251; Log10 Concentration -6.0, 1 µM",3%
same,Percent Growth,U251; [2],89%
same,Percent Growth,U251; Log10 Concentration -8.0,99%
same,TGI,U251; PG=0,1.1 µM
same,GI50,U251; PG=+50,0.286 µM
same,CC50,"U251; read-out: LC-50, PG=-50",5.12 µM
same,Percent Growth,HL-60 (TB); [1],-30%
same,Percent Growth,HL-60 (TB); Log10 Concentration -5.0,25%
same,Percent Growth,"HL-60 (TB); Log10 Concentration -6.0, 1 µM",102%
same,Percent Growth,HL-60 (TB); Log10 Concentration -8.0,111%
same,TGI,HL-60 (TB); PG=0,28.7 µM
same,GI50,HL-60 (TB); PG=+50,4.8 µM
same,CC50,"HL-60 (TB); read-out: LC-50, PG=-50",> 100 µM
same,GI50,786-0; 786-0,0.523 µM
same,CC50,"786-0; 786-0, read-out: LC-50",37.3 µM
same,activity at 0.01 µM,786-0; [4],102%
same,activity at 0.1 µM,786-0; [4],96%
same,activity at 1 µM,786-0; [4],32%
same,activity at 10 µM,786-0; [4],3%
same,activity at 100 µM,786-0; [4],-90%
same,IC (TGI),"786-0; 786-0, read-out: TGI",10.7 µM
same,Percent Growth,RXF-631; [1],-78%
same,Percent Growth,RXF-631; Log10 Concentration -5.0,-8%
same,Percent Growth,"RXF-631; Log10 Concentration -6.0, 1 µM",30%
same,Percent Growth,RXF-631; [2],74%
same,Percent Growth,RXF-631; Log10 Concentration -8.0,95%
same,TGI,RXF-631; PG=0,6.25 µM
same,GI50,RXF-631; PG=+50,0.352 µM
same,CC50,"RXF-631; read-out: LC-50, PG=-50",39.5 µM
same,effect against CNS cancer cell lines,CNS cancer cell lines,particularly effective against CNS cancer cell lines
same,Percent Growth,IGROV1; [1],-73%
same,Percent Growth,IGROV1; Log10 Concentration -5.0,-15%
same,Percent Growth,"IGROV1; Log10 Concentration -6.0, 1 µM",30%
same,Percent Growth,IGROV1; [2],85%
same,Percent Growth,IGROV1; Log10 Concentration -8.0,97%
same,TGI,IGROV1; PG=0,4.71 µM
same,GI50,IGROV1; PG=+50,0.438 µM
same,CC50,"IGROV1; read-out: LC-50, PG=-50",39.9 µM
same,Percent Growth,K-562; [1],2%
same,Percent Growth,K-562; Log10 Concentration -5.0,6%
same,Percent Growth,"K-562; Log10 Concentration -6.0, 1 µM",53%
same,Percent Growth,K-562; [2],83%
same,Percent Growth,K-562; Log10 Concentration -8.0,95%
same,TGI,K-562; PG=0,> 100 µM
same,GI50,K-562; PG=+50,1.17 µM
same,CC50,"K-562; read-out: LC-50, PG=-50",> 100 µM
same,Percent Growth,UACC-257; [1],-87%
same,Percent Growth,UACC-257; Log10 Concentration -5.0,-8%
same,Percent Growth,"UACC-257; Log10 Concentration -6.0, 1 µM",86%
same,Percent Growth,UACC-257; [2],90%
same,Percent Growth,UACC-257; Log10 Concentration -8.0,97%
same,TGI,UACC-257; PG=0,8.23 µM
same,GI50,UACC-257; PG=+50,2.43 µM
same,CC50,"UACC-257; read-out: LC-50, PG=-50",34.3 µM
same,Percent Growth,OVCAR-5; [1],-83%
same,Percent Growth,OVCAR-5; Log10 Concentration -5.0,19%
same,Percent Growth,"OVCAR-5; Log10 Concentration -6.0, 1 µM",97%
same,Percent Growth,OVCAR-5; [2],113%
same,Percent Growth,OVCAR-5; Log10 Concentration -8.0,108%
same,TGI,OVCAR-5; PG=0,15.2 µM
same,GI50,OVCAR-5; PG=+50,3.99 µM
same,CC50,"OVCAR-5; read-out: LC-50, PG=-50",47.4 µM
same,Percent Growth,SF-539; [1],-90%
same,Percent Growth,SF-539; Log10 Concentration -5.0,-58%
same,Percent Growth,"SF-539; Log10 Concentration -6.0, 1 µM",6%
same,Percent Growth,SF-539; [2],92%
same,Percent Growth,SF-539; Log10 Concentration -8.0,99%
same,TGI,SF-539; PG=0,1.23 µM
same,GI50,SF-539; PG=+50,0.305 µM
same,CC50,"SF-539; read-out: LC-50, PG=-50",7.56 µM
